Experimental data taken from PubChem BioAssay (NCI).
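Growth conditions: 96-well plates. Treatment: test compound, 48 hours, 5 concentrations. Analysis: linear interpolation between bracketing concentrations; unreached endpoints set to highest concentration. GI50: concentration for 50% inhibition of growth. TGI: total growth inhibition.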

How the values were obtained:
Test in all cases: NCI-60 cell line screen, 48 h
[1] = system: MALME-3M melanoma
[2] = system: SW-620 colon
[3] = system: COLO 205 colon
[4] = system: NCI/ADR-RES ovarian
[5] = system: HS 578T breast
[6] = system: SF-268 CNS
[7] = system: U251 CNS
[8] = system: OVCAR-5 ovarian
[9] = system: UO-31 renal
[10] = system: A549 NSCLC

SMILES | GI50 [1] | TGI [1] | GI50 [2] | TGI [2] | GI50 [3] | TGI [3] | GI50 [4] | TGI [4] | GI50 [5] | TGI [5] | GI50 [6] | TGI [6] | GI50 [7] | TGI [7] | GI50 [8] | TGI [8] | GI50 [9] | TGI [9] | GI50 [10] | TGI [10]
O=C(Nc1cc(Cl)ccc1O)c1cccc(NC2=C(Cl)C(=O)N(Cc3ccccc3)C2=O)c1 | 30.5 µM | 86.4 µM | 21.3 µM | 49.9 µM | 30.9 µM | > 100 µM | 20.7 µM | 43.4 µM | 20.9 µM | 49.9 µM | 18.5 µM | 38.2 µM | 18.2 µM | 37.3 µM | 45.8 µM | > 100 µM | 38.3 µM | > 100 µM | 36.9 µM | > 100 µM
O=C(N/N=C/c1ccc(O)cc1O)c1ccc(Nc2ccnc(C(F)(F)F)c2)cc1 | 0.661 µM | > 45.6 µM | > 100 µM | > 100 µM | 7.61 µM | > 100 µM | > 100 µM | > 100 µM | 4.4 µM | 29 µM | 0.156 µM | 33.3 µM | 0.248 µM | 21.2 µM | > 100 µM | > 100 µM | > 24.3 µM | > 100 µM | > 100 µM | > 100 µM
c1cncc(CNc2ccccc2-c2nnc(Nc3ccc4c(c3)OCCO4)o2)c1 | 19.2 µM | > 100 µM | 0.0576 µM | > 100 µM | 0.146 µM | 0.817 µM | 0.0557 µM | > 100 µM | 0.232 µM | > 100 µM | 0.646 µM | > 100 µM | 0.157 µM | > 100 µM | 0.658 µM | > 100 µM | 4.69 µM | > 100 µM | 0.294 µM | > 100 µM
COc1cc2c(OC)c(c1)CCCC1=CC(=O)C=C(CCC2)C1=O | – | 75.8 µM | – | > 77 µM | – | > 31.6 µM | – | > 65.7 µM | – | > 100 µM | – | > 100 µM | – | > 100 µM | – | > 100 µM | – | > 100 µM | – | > 100 µM
Cc1cc(-c2nc3ccc(O)cc3s2)ccc1N | 82.8 µM | > 100 µM | 66.8 µM | > 100 µM | > 100 µM | > 100 µM | 91.1 µM | > 100 µM | 95.5 µM | > 100 µM | 35.6 µM | > 100 µM | 31.3 µM | > 100 µM | 82.6 µM | > 100 µM | 21.6 µM | > 100 µM | 34.5 µM | > 100 µM
CC1(C)N=C(N)N=C(N)N1c1cccc(CCCCc2ccc(S(=O)(=O)F)cc2Cl)c1 | 1.12 µM | 28.2 µM | 0.701 µM | > 39.8 µM | 5.37 µM | 32.9 µM | 76 µM | > 100 µM | 43.2 µM | > 100 µM | 1.96 µM | 17.4 µM | 0.722 µM | 20.4 µM | 6.29 µM | > 100 µM | 14.6 µM | > 100 µM | 1.42 µM | > 100 µM
NC1CCC[C@@H](O)[C@H]1O (stereo not given in full) | – | > 100 µM | – | > 100 µM | – | > 100 µM | – | > 100 µM | – | > 100 µM | – | > 100 µM | – | > 100 µM | – | > 100 µM | – | > 100 µM | – | > 100 µM
COc1cccc(/C=C/C(=O)c2cc3c(N)c(C(=O)Nc4cccc(Cl)c4C)sc3nc2C)c1 | 1.34 µM | 7.76 µM | 0.472 µM | 3.85 µM | 1.38 µM | 3.63 µM | 0.883 µM | 3.08 µM | 1.71 µM | > 50 µM | 1.57 µM | 14.4 µM | 0.959 µM | 2.05 µM | 1.22 µM | 3.44 µM | 0.809 µM | 1.97 µM | 1.72 µM | > 50 µM
C#CC[C@H](c1nc2cc(Cl)ccc2c(=O)n1Nc1ccccc1)N(CCCN)C(=O)c1cccc(Cl)c1F | 1.05 µM | 2.45 µM | 0.237 µM | 1.81 µM | 0.0951 µM | 0.868 µM | 14.2 µM | 30 µM | 0.162 µM | 1.19 µM | 0.214 µM | 2.61 µM | 0.293 µM | 1.27 µM | 0.419 µM | 2.56 µM | 2.94 µM | 8.07 µM | 0.255 µM | 1.87 µM
